Laboratory results as given in paper PMC8388125, “Kinetic and Structural Characterization of the Self-Labeling Protein Tags HaloTag7, SNAP-tag, and CLIP-tag” (Biochemistry, 2021).
Changes are numbered by the printed parent chain.

Experiments:
SNAP-tag (SNAP) [1] = target: T1, SNAP-tag (SNAP) (Homo sapiens, UniProt P16455, A127T/A154D/C150Q/C62A/G131K/G132T/G153L/K125A/K32I/L33F/M134L/N157G/Q115S/Q116H/R128A/R135S/S151G/S152D/S159E); assay: SNAP labeling kinetics via microplate reader (FP over time); format: biochemical; details: SNAP, plate reader, kinetic model 1
T1 construct: made in house; host or cells: E. coli BL21(DE3)-pLysS
T1 sequence (P16455 1-182 K32I/L33F/C62A/Q115S/Q116H/K125A/A127T/R128A/G131K/G132T/M134L/R135S/C150Q/S151G/S152D/G153L/A154D/N157G/S159E limits assumed): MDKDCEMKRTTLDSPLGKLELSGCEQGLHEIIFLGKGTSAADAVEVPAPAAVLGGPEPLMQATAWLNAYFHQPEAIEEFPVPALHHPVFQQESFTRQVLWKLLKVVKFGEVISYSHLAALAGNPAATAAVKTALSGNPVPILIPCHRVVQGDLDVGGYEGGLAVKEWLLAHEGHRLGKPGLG
Procedure: (§1) Labeling kinetics of SNAP and CLIP substrates were measured by recording FP over time using a microplate reader in a manner analogous to that of HT7 labeling kinetics described above with the following changes. The fluorescent substrate concentration was fixed to 20 nM, and protein concentrations were varied from 15 to 900 nM. Measurements were performed in SNAP-FP buffer.
(§2) Kinetic data from microplate reader assays were fitted to a simplified kinetic model (eq 13) described by differential eqs 14–16 using DynaFit. The dead time of the measurements and baseline FP value were put in as fixed parameters. Standard deviations (normal distribution verified) and confidence intervals of fitted parameters were estimated with the Monte Carlo method with standard settings (N = 1000, 5% worst fits discarded). In the case of BG, CP, and BC kinetics, the substrate concentration was fitted by DynaFit to rule out quantification errors of the BG, CP, or BC fluorophores. Accurate fitting of the concentration was ensured by including conditions under which protein is limiting and no maximum FP value was reached.

CLIP-tag (CLIP) = target: T2, CLIP-tag (CLIP) (Homo sapiens, UniProt P16455, A121V/A127T/A154D/C150Q/C62A/G131N/G132T/G153S/K125A/K32I/L33F/M134L/M60I/N157P/Q115S/Q116H/R128A/R135D/S151G/S152D/S159L/Y114E); assay: CLIP labeling kinetics via microplate reader (FP over time); format: biochemical; details: CLIP cross-reactivity
T2 construct: made in house; host or cells: E. coli BL21(DE3)-pLysS
T2 sequence (P16455 1-182 K32I/L33F/M60I/C62A/Y114E/Q115S/Q116H/A121V/K125A/A127T/R128A/G131N/G132T/M134L/R135D/C150Q/S151G/S152D/G153S/A154D/N157P/S159L limits assumed): T1 sequence (P16455 1-182 K32I/L33F/C62A/Q115S/Q116H/K125A/A127T/R128A/G131K/G132T/M134L/R135S/C150Q/S151G/S152D/G153L/A154D/N157G/S159E limits assumed) with M60I, Y114E, A121V, K131N, S135D, L153S, G157P, E159L
Procedure: as §1, §2

[2] = target: T3, hAGT (human O^6-alkylguanine-DNA alkyltransferase) (Homo sapiens, UniProt P16455); assay: hAGT labeling kinetics via microplate reader (FP over time); format: biochemical
T3 construct: StrepTag-II (N); enterokinase cleavage site (N); His10 (C); made in house; host or cells: E. coli BL21(DE3)-pLysS
T3 sequence (P16455 1-207): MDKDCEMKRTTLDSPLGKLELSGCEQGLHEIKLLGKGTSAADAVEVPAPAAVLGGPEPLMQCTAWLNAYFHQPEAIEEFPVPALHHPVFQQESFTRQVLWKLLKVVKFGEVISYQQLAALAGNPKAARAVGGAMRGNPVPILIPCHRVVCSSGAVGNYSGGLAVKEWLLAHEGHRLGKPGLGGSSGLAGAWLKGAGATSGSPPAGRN
Procedure: as §1, §2

SNAP-tag (SNAP) [3] = target: T1, SNAP-tag (SNAP); assay: SNAP labeling kinetics via stopped flow (fluorescence anisotropy); format: biochemical; details: model 2
Procedure: Labeling kinetics of SNAP with BG-TMR were measured via stopped-flow in a manner analogous to that for HT7 kinetics described above; however, the final substrate concentration was fixed at 2 μM, and the protein concentration was varied from 1.875 to 50 μM. The activity buffer was supplemented with 1 mM DTT.
(§3) Kinetic stopped-flow data were preprocessed using a custom R script.[36],[37] Recorded pretrigger time points were removed, and time points were adjusted to start at time zero. Values from replicates were averaged. The anisotropy of the free dye was calculated by averaging anisotropy values of the baseline measurements. Preprocessed data were fitted to a kinetic model (eqs 5 and 6) described by differential eqs 7–10 using the DynaFit software.[38] The anisotropy of the free dye and the mixing delay of the stopped-flow machine were set as fixed offset and delay parameters in DynaFit. It was assumed that the protein substrate complex and the reacted product are contributing equally to the anisotropy signal. […] Standard deviations (normal distribution verified) and confidence intervals of fitted parameters were estimated with the Monte Carlo method[39] with standard settings (N = 1000, 5% worst fits discarded). In the case of SNAP kinetics with BG-TMR, the substrate concentration was fitted by DynaFit to rule out quantification errors of the BG-quenched fluorophore. Accurate fitting of the concentration was ensured by including conditions in which protein is limiting and no maximum FP value was reached.

SNAP^C145A = target: T4, SNAP^C145A (Homo sapiens, UniProt P16455, A127T/A154D/C145A/C150Q/C62A/G131K/G132T/G153L/K125A/K32I/L33F/M134L/N157G/Q115S/Q116H/R128A/R135S/S151G/S152D/S159E); assay: Affinity of SNAP^C145A for BG and CP fluorescent substrates by fluorescence polarization; format: binding
T4 construct: made in house; host or cells: E. coli BL21(DE3)-pLysS
T4 sequence (P16455 1-182 K32I/L33F/C62A/Q115S/Q116H/K125A/A127T/R128A/G131K/G132T/M134L/R135S/C145A/C150Q/S151G/S152D/G153L/A154D/N157G/S159E limits assumed): T1 sequence (P16455 1-182 K32I/L33F/C62A/Q115S/Q116H/K125A/A127T/R128A/G131K/G132T/M134L/R135S/C150Q/S151G/S152D/G153L/A154D/N157G/S159E limits assumed) with C145A
Procedure: Binding affinities of SNAP^C145A and SNAPf^C145A for BG-Alexa488, CP-Alexa488, BG-fluorescein, CP-fluorescein, BG-MAP555, BG-JF549, BG-TMR(6), BG-TMR(5), CP-TMR, BG-CPY(6), BG-CPY(5), CP-CPY, BG-SiR, CP-SiR, BG-JF646, BG-Atto565, BG-Atto590, BG-sulfo-Cy3, BG-Cy3, BG-sulfo-Cy5, and BG-Cy5 were determined by fluorescence polarization in a manner analogous to that for HT7 affinities for CA substrates described above with the following changes. Fluorescent substrates were titrated at a final concentration of 50 nM against protein concentrations ranging from 0 to 250 μM at room temperature using 0.1 g/L BSA and 1 mM DTT (SNAP-FP buffer). The FP value of each dye fully reacted with the native SNAP/SNAPf was used to improve fitting of the upper plateau of the curves by adding an extra data point at a protein concentration of 0.005 M.

HaloTag7 (HT7) = target: T5, HaloTag7 (HT7) (Rhodococcus sp., UniProt P59336, A155T/A167V/A224E/C128F/C176G/D78G/E160K/E257K/G292T/H272N/K175M/K195N/L47V/L88M/N227D/P291S/S2A/S58T/T264A/V172T/Y273L/Y87F); assay: HT7 labeling kinetics via stopped flow (fluorescence anisotropy); format: biochemical
T5 construct: made in house; host or cells: E. coli BL21(DE3)-pLysS
T5 sequence (P59336 other isoform, or with tags, fused parts or gaps with the stated changes): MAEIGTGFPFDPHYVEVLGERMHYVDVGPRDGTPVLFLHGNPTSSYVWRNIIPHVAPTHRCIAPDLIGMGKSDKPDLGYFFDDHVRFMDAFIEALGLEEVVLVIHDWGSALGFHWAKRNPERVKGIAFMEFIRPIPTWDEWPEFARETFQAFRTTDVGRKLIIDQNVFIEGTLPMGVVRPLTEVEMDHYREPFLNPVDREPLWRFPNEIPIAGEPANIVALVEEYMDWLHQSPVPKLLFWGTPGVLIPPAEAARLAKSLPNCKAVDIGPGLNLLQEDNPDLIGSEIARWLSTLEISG
Procedure: (§4) Labeling kinetics of HT7 with CA-TMR, CA-JF549, CA-CPY, CA-LIVE580, and CA-JF669 and labeling kinetics of HOB with CA-TMR were measured by recording fluorescence anisotropy changes over time using a BioLogic SFM-400 stopped-flow instrument (BioLogic Science Instruments, Claix, France) in a single-mixing configuration at 37 °C. HT7 protein and substrates in activity buffer were mixed in a 1:1 stoichiometry to reach a recordable speed for these fast reactions and to increase the information content of the traces. Concentrations were varied from 0.125 to 1 μM. The anisotropy of the free substrate was measured to obtain a baseline.
as §3

[4] = test system: HOB (halo-based oligonucleotide binder, HT7 variant); assay: HOB labeling kinetics via stopped flow (fluorescence anisotropy); format: biochemical, Rhodococcus sp.
Procedure: as §4
Kinetic stopped-flow data were preprocessed using a custom R script.[36],[37] Recorded pretrigger time points were removed, and time points were adjusted to start at time zero. Values from replicates were averaged. The anisotropy of the free dye was calculated by averaging anisotropy values of the baseline measurements. Preprocessed data were fitted to a kinetic model (eqs 5 and 6) described by differential eqs 7–10 using the DynaFit software.[38] The anisotropy of the free dye and the mixing delay of the stopped-flow machine were set as fixed offset and delay parameters in DynaFit. […] In the case of SNAP kinetics with BG-TMR, the substrate concentration was fitted by DynaFit to rule out quantification errors of the BG-quenched fluorophore. […]

HT7^D106A = target: T6, HT7^D106A (Rhodococcus sp., UniProt P59336, A155T/A167V/A224E/C128F/C176G/D106A/D78G/E160K/E257K/G292T/H272N/K175M/K195N/L47V/L88M/N227D/P291S/S2A/S58T/T264A/V172T/Y273L/Y87F); assay: Affinity of HT7^D106A for CA substrates by fluorescence polarization; format: binding
T6 construct: made in house; host or cells: E. coli BL21(DE3)-pLysS
T6 sequence (P59336 other isoform, or with tags, fused parts or gaps with the stated changes): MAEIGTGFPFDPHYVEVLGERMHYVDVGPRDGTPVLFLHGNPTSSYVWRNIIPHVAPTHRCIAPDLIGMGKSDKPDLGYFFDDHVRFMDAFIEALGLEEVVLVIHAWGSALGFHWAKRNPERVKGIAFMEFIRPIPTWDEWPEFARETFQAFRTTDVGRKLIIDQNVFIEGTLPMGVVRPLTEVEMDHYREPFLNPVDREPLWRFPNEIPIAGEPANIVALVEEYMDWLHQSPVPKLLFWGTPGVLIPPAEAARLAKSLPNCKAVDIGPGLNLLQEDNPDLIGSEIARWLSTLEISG
Procedure: Binding affinities of HT7^D106A or HOB^D106A for chloroalkane (CA) substrates were determined by fluorescence polarization (FP, eq 1) measurements using a microplate reader (Spark20M, Tecan Group AG, Männedorf, Switzerland). The fluorescent substrates (10 nM) were titrated against different protein concentrations (0–250 μM) in activity buffer supplemented with 0.5 g/L bovine serum albumin (BSA). Assays were performed in black low-volume nonbinding 384-well plates (Corning Inc., Corning, NY) with a final volume of 20 μL. Obtained FP values were averaged and fitted to a single-site binding model (eq 2) to estimate Kd values for each fluorescent substrate. The FP value of each dye fully reacted with the native HT7 was used to improve fitting of the upper plateau of the curves by adding an extra data point at a protein concentration of 0.1 M. [drawing 1] 1 where FP is the fluorescence polarization, I∥ is the fluorescence intensity parallel to the excitation light polarization, I⊥ is the fluorescence intensity perpendicular to the excitation light polarization, and G is the grating factor (G = I∥/I⊥). [drawing 2] 2 where FPmin is the fluorescence polarization of the free fluorophore (lower plateau), FPmax is the maximal fluorescence polarization of fully bound fluorophore (upper plateau), Kd is the dissociation constant, and [protein] is the protein concentration.
Free binding energies were calculated from Kd values according to eq 4: [drawing 4] 4 where ΔG is the free binding energy, R is the universal gas constant, T is the temperature, and Kd is the dissociation constant.

SMILES | kapp (value ± standard deviation) (SNAP-tag (SNAP) [1]) | times slower reaction of CLIP than with BC-TMR (CLIP-tag (CLIP)) [times] | times slower labeling of hAGT than of SNAP ([2]; hAGT vs SNAP) [times] | kapp (value ± standard deviation) ([2]; hAGT, plate reader, model 1) | k2 (± S.D.) (SNAP-tag (SNAP) [3]) | k-1 (± S.D.) (SNAP-tag (SNAP) [3]) | fold lower Kd^C145A compared to Kd calculated from stopped-flow experiments using active SNAP (SNAP^C145A; SNAP^C145A vs active SNAP) [fold] | Kd (SNAP^C145A; SNAP^C145A, fluorescence polarization, room temperature) [µM] | Kd (HaloTag7 (HT7)) [µM] | k2 (± S.D.) (HaloTag7 (HT7); HT7, stopped flow, model 2) | fold decrease in kapp of HOB compared to HT7 ([4]; HOB vs HT7) [fold] | k2 (± S.D.) ([4]; HOB, stopped flow, model 2) | Kd (HT7^D106A) [µM] | fold decrease in affinity of the 5-substituted compared to the 6-substituted rhodamine substrate (HT7^D106A; HT7^D106A) [fold] | free binding energy (ΔG) (HT7^D106A; HT7^D106A, calculated from Kd) [kJ mol^–1]
CN(C)c1ccc2c(-c3cc(C(=O)NCc4ccc(COc5nc(N)nc6[nH]cnc56)cc4)ccc3C(=O)[O-])c3ccc(=[N+](C)C)cc-3oc2c1 [BG-TMR] | (4.29 ± 0.01) × 10^5 M^–1 s^–1 | 100 | 130 | (3.38 ± 0.01) × 10^3 M^–1 s^–1 | 1.24 (± 0.02) s-1 | 1.02 (± 0.03) s-1 | 3 | 0.68 | – | – | – | – | – | – | –
CN(C)c1ccc2c(-c3cc(C(=O)NCCOCCOCCCCCCCl)ccc3C(=O)[O-])c3ccc(=[N+](C)C)cc-3oc2c1 [CA-TMR, chloroalkane-PEG-tetramethylrhodamine] | – | – | – | – | – | – | – | – | 0.327 | 8.06 (± 0.29) s-1 | 2.09 ± 0.01 | 5.05 (± 0.13) s-1 | 6.24 | 6.31 | 30.9
